Measurements taken from patent US20190381127A1, “COMBINATION THERAPY WITH A6, CHEMOTHERAPEUTIC AGENTS, RADIATION THERAPY, OR A COMBINATION THEREOF FOR THE TREATMENT OF CANCER” (Splash Pharmaceuticals, Inc., priority 2016, published 2019).

Assays:
CD44 [1] = target: T1, CD44 (Homo sapiens, UniProt P16070); assay: Perturbation of anti-CD44 antibody binding to SKOV3 cells
[2] = test system: HEY (DDP sensitive) cells; assay: CCK-8 cytotoxicity of DDP/PTX with or without A6; assay type: cell-based; conditions: 100 μM A6; 72 hours; 10% FBS
Procedure: Effect of A6 plus Cisplatin (DDP) or Paclitaxel (PTX) in HEY (DDP sensitive) and HEY/C2 (DDP resistant) cells was tested. The cells were plated in 96-well plates as described and incubated overnight. The cells were treating with various doses of DDP/PTX in the absence or presence of 100 μM A6 in culture medium containing 10% FBS and incubated for 72 hours. The CCK-8 assay described herein was performed to access cytotoxicity of DDP/PTX.

[3] = test system: CD44-negative A2780 cells; assay: Boyden chamber migration; assay type: cell-based, human
[4] = test system: human PC-3M-LN4 prostate cancer cells; assay: Orthotopic prostate cancer metastasis model; assay type: in vivo, BALB/c (nu/nu) mice
Procedure: Prostate: A model of prostate cancer was used to evaluate the antimetastatic effect of A6 in mice. Metastases to lymph nodes were measured following the orthotopic injection of human PC-3M-LN4 prostate cancer cells into the prostates of BALB/c (nu/nu) mice.

CD44 [5] = target: T1, CD44; assay: Cross-linking, immunoprecipitation and immunoblotting of SKOV3 lysates; assay type: binding; conditions: SKOV3 cells bound and cross-linked to A6
Procedure: Human ovarian SKOV3 cells were bound and cross-linked to A6. […] To determine if this binding influenced CD44-mediated activity, and to determine if a functional relationship existed between A6 and CD44, intracellular signaling studies were conducted.

B16-F10 cells = assay: Inhibition of chemotaxis; assay type: cell-based; conditions: read-out: IC50 for A6 inhibition of chemotaxis
[6] = test system: ZAP-70pos B-cell lymphocytes isolated from individual patients; assay: CLL xenograft model; assay type: in vivo, immune-deficient mice; conditions: vs vehicle control
2008/C13*5.25 cells = assay: CCK-8 cytotoxicity, A6 plus DDP; assay type: cell-based, human; conditions: A6 1, 10 or 100 μM 1 h, then 1 h A6 plus DDP; 10% FBS
Procedure: Conditions: Drugs: DDP (3.33 mM stock) and A6 (109.8 mM stock); Drug exposure time: 1 hour ; Cell line: 2008 and its DDP-resistant subline 2008/C31*5.25; Media: RPMI 1640 plus 10% FBS containing 1 mM penicillin/streptomycin; Cytotoxicity Assays: CCK-8 (Cell Counting Kit 8—Dojindo Molecular Technologies).
Tissue culture plates containing 96-well plates were seeded with 3000 cells in 100 μl of media per well. The wells on rows A-D were seeded with 2008 cells, while the wells on rows E-H were seeded with 2008/C13*5.25 cells. The cells were allowed to attach overnight in a 37° C. in 5% CO2 incubator. Approximately 24 h later medium was removed by aspiration and the cells were exposed to 0, 1, 10 or 100 μM A6 peptide in 100 μl. After 1 h, increasing concentrations of DDP were added to triplicate wells in 100 μl medium. Following a 1 h exposure to the combination of A6 and DDP, the drugs were removed by aspiration. The cells were then allowed to grow for 96 h following which the plates were assayed for relative cell growth with the CCK-8 assay.
(§1) The assay was performed using triplicate wells for each DDP concentration. […]

IGROV-1 cells = assay: CCK-8 cytotoxicity, A6 plus DDP; assay type: cell-based, human; conditions: A6 1, 10 or 100 μM 1 h, then 1 h A6 plus DDP
Procedure: Drugs: DDP (3.33 mM stock) and A6 (109.8 mM stock); Drug exposure time: 1 hour; Cell line: IGROV-1 and its DDP-resistant subline IGROV-1/CP; Media: RPMI 1640 plus 10% FBS containing 1 mM penicillin/streptomycin; Cytotoxicity Assays: CCK-8 (Cell Counting Kit 8—Dojindo Molecular Technologies).
Tissue culture plates containing 96-well plates were seeded with 4000 cells in 100 μl of media per well. The wells on rows A-D were seeded with IGROV-1 cells, while the wells on rows E-H were seeded with IGROV-1/CP cells. The cells were allowed to attach overnight in a 37° C. in 5% CO2 incubator. Approximately 24 h later medium was removed by aspiration and the cells were exposed to 0, 1, 10 or 100 μM A6 peptide in 100 μl. After 1 h, increasing concentrations of DDP were added to triplicate wells in 100 pa medium. Following a 1 h exposure to the combination of A6 and DDP, the drugs were removed by aspiration. The cells were then allowed to grow for 96 h following which the plates were assayed for relative cell growth with the CCK-8 assay.
CCK-8 assay. Five pi of CCK-8 stain was added to each well and the plate was incubated at 37° C. incubator for 4 h. The plate was read with a microplate reader at a wavelength of 450 nm.
as §1

IGROV-1/CP cells = assay: CCK-8 cytotoxicity, A6 plus DDP; assay type: cell-based, human; conditions: A6 1, 10 or 100 μM 1 h, then 1 h A6 plus DDP
Procedure: Study Conditions. Drugs: […] Drug exposure time: 1 hour; Cell line: IGROV-1 and its DDP-resistant subline IGROV-1/CP; Media: RPMI 1640 plus 10% FBS containing 1 mM penicillin/streptomycin; Cytotoxicity Assays: CCK-8 (Cell Counting Kit 8—Dojindo Molecular Technologies). Tissue culture plates containing 96-well plates were seeded with 4000 cells in 100 μl of media per well. The wells on rows A-D were seeded with IGROV-1 cells, while the wells on rows E-H were seeded with IGROV-1/CP cells. […] After 1 h, increasing concentrations of DDP were added to triplicate wells in […] medium. […] The cells were then allowed to grow for 96 h following which the plates were assayed for relative cell growth with the CCK-8 assay. CCK-8 assay. […] of CCK-8 stain was added to each well and the plate was incubated at 37° C. incubator for 4 h. The plate was read with a microplate reader at a wavelength of 450 nm. (See FIGS. 7A-7D and FIG. 8). The assay was performed using triplicate wells for each DDP concentration. The data in the tables below is the optical density in the well which is a function of the number of live cells remaining at the end of the 96 h growth period.

[7] = test system: CD44-nonexpressing A278 cells; assay: Cell binding to HA coated plates; assay type: cell-based
Excerpt: A6 shares sequence homology with the Link Module of CD44. […] This effect was blocked with the anti-CD44 antibody, IM7. […] Without being bound by any particular A6 can induce conformational changes in CD44, resulting in either a lowered affinity of the epitope for DF1485, or preventing DF1485 from binding CD44. The binding of A6 to CD44 results in a modulation of CD44-mediated intracellular signaling and establishes a functional relationship between A6 and CD44 in CD44 expressing cells.

A2780/CP cells = assay: CCK-8 cytotoxicity, A6 plus DDP; assay type: cell-based, human; conditions: A6 1, 10 or 100 μM 1 h, then 1 h A6 plus DDP; 10% FBS
Procedure: Study Conditions. Drugs: […] Drug exposure time: 1 hour; Cell line: […] Media: RPMI 1640 plus 10% FBS containing 1 mM penicillin/streptomycin; Cytotoxicity Assays: CCK-8 (Cell Counting Kit 8-Dojindo Molecular Technologies). Tissue culture plates containing 96-well plates were seeded with 4000 cells in 100 μl of media per well. The wells on rows A-[…] cells, while the wells on rows E-[…]/CP cells. […] After 1 h, increasing concentrations of DDP were added to triplicate wells in 100 μl medium. […] The cells were then allowed to grow for 96 h following which the plates were assayed for relative cell growth with the CCK-8 assay. CCK-8 assay. Five μl of CCK-8 stain was added to each well and the plate was incubated at 37° C. incubator for 4 h. The plate was read with a microplate reader at a wavelength of 450 nm. (See FIGS. 5A-5D and FIG. 6). The assay was performed using triplicate wells for each DDP concentration. The data in the tables below is the optical density in the well which is a function of the number of live cells remaining at the end of the 96 h growth period.

retina of diabetic rats = assay: Streptozotocin diabetic retinopathy model; parameters: species or system Brown Norway rats; conditions: rat, in vivo
[8] = test system: human breast and ovarian cancer cell lines; assay: Boyden chamber chemotaxis; assay type: cell-based; conditions: responsive cell lines; read-out: IC50 for the inhibition of chemotaxis
Excerpt: A6 had no effect on the migration of CD44-negative A2780 cells. A6 was also shown to interfere with the binding of only one (DF1485) of the four anti-CD44 antibodies tested.

[9] = test system: HEY/C2 (DDP resistant) cells; assay: CCK-8 cytotoxicity of DDP/PTX with or without A6; assay type: cell-based; conditions: 100 μM A6; 72 hours; 10% FBS
Procedure: The cells were plated in 96-well plates as described and incubated overnight. […] The CCK-8 assay described herein was performed to access cytotoxicity of DDP/PTX.

T1 sequence (P16070 21-742): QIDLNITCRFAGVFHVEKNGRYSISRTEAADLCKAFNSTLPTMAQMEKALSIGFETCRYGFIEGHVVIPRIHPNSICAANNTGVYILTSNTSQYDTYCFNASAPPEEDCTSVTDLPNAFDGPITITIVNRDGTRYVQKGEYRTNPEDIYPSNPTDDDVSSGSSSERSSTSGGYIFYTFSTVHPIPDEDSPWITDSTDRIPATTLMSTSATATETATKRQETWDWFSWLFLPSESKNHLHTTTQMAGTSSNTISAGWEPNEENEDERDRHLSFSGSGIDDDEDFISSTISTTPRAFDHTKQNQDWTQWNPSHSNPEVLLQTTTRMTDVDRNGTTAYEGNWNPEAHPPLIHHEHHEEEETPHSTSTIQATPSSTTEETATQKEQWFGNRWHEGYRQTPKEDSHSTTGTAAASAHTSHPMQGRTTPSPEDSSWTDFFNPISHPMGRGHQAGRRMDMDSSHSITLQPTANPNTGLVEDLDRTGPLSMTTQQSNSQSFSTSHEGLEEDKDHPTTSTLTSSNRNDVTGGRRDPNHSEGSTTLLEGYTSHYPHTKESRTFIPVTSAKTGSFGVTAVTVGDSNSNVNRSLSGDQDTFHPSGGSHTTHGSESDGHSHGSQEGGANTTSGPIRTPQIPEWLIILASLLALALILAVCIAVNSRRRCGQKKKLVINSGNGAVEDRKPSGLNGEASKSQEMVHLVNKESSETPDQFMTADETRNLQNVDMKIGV

## Ac-KPSSPPEE-NH2 [A6, Ac-KPSSPPEE-NH2]
CD44 [1]; antibody DF1485
  binding of the anti-CD44 antibody DF1485 to CD44-expressing SKOV3 cells: partial inhibition
CD44 [1]; antibody IM7
  binding of the anti-CD44 antibody IM7: did not interfere
Ovarian cancer; in vivo
  CA125 response: not associated with CA125 response
  complete responses: no complete responses
  patients achieving stable disease: 36%
  safety profile: comparable to that of control (placebo) treatment
Ovarian cancer; placebo 49 days
  median progression free survival (PFS): 100 days
[2]
  sensitivity of cells to cisplatin: did not affect sensitivity
  sensitivity of cells to paclitaxel: did not affect sensitivity
human, in vivo
  adverse events: no systemic drug-related adverse events
  cumulative increase in concentration over time: no cumulative increase in concentration over time was detected
Subcutaneous twice daily for 6 days, day 14
  anti-A6 antibody production: no anti-A6 antibody production was detected
[3]
  effect on migration: no effect
[4]; more than 70% in the control group
  percentage of mice with lymph node metastases: ≥ 22%
[4]; mouse, in vivo
  reduction of lymph node volume: ≤ 70%
CD44 [5]
  direct interaction with CD44: binding to CD44
B16-F10 cells
  IC50: 29 nM
[6]
  reduction in CLL burden: up to 90%
2008/C13*5.25 cells
  modulation of sensitivity to DDP: failed to modulate the sensitivity
IGROV-1 cells
  modulation of sensitivity to DDP: failed to modulate the sensitivity
IGROV-1/CP cells
  modulation of sensitivity to DDP: failed to modulate the sensitivity
[7]
  binding of cells to HA coated plates: neither A6 nor IM7 had any effect
A2780/CP cells
  modulation of sensitivity to DDP: failed to modulate the sensitivity
Retina of diabetic rats
  increase in microvascular permeability in the retina: inhibits the increase
  loss of vascular endothelial (VE)-cadherin: prevents the loss
[8]
  IC50: 10 to 100 nM
[9]
  sensitivity of cells to cisplatin: did not affect sensitivity
  sensitivity of cells to paclitaxel: did not affect sensitivity
